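96-well plates; 48 h exposure; 5 concentrations. Endpoints by linear interpolation between flanking doses. Not reached: highest tested concentration assigned. Abbreviation: GI50, concentration required for 50% inhibition of growth.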 Activity calls are given as the source filed them. Cut-off read from the data, not from the text of the source: active = GI50 up to about 1.1 µM and inactive = higher.
Experiments:
Assay in all cases: inhibition of tumour cell growth, NCI panel, 48 h
CCRF-CEM = system: CCRF-CEM
NCI/ADR-RES = system: NCI/ADR-RES
COLO 205 = system: COLO 205
SF-539 = system: SF-539
SNB-19 = system: SNB-19
EKVX = system: EKVX
NCI-H23 = system: NCI-H23
OVCAR-8 = system: OVCAR-8
UO-31 = system: UO-31
SK-MEL-28 = system: SK-MEL-28
OVCAR-4 = system: OVCAR-4
A549 = system: A549
HT-29 = system: HT-29
A498 = system: A498
SK-MEL-2 = system: SK-MEL-2
RPMI-8226 = system: RPMI-8226
786-0 = system: 786-0
TK-10 = system: TK-10

Measured: GI50

NC(=O)c1ncn2c1NC(=O)CC2
inactive: CCRF-CEM > 100 µM | NCI/ADR-RES > 100 µM | COLO 205 > 100 µM | SF-539 > 100 µM | SNB-19 > 100 µM | EKVX > 100 µM | NCI-H23 > 100 µM | OVCAR-8 > 100 µM | UO-31 > 100 µM | SK-MEL-28 > 100 µM | OVCAR-4 > 100 µM | A549 > 100 µM | HT-29 > 100 µM | A498 > 100 µM | SK-MEL-2 > 100 µM | RPMI-8226 > 100 µM

CC(C(=O)n1nnc2ccccc21)N(c1ccccc1)c1ccccc1 (stereo unspecified)
inactive: CCRF-CEM 83.4 µM | COLO 205 > 100 µM | SF-539 > 100 µM | SNB-19 48.3 µM | EKVX 68.2 µM | NCI-H23 56.8 µM | OVCAR-8 > 100 µM | UO-31 > 100 µM | SK-MEL-28 > 100 µM | A549 56.9 µM | 786-0 > 100 µM | HT-29 > 100 µM | SK-MEL-2 > 100 µM | TK-10 > 100 µM | RPMI-8226 52.7 µM

CC(C)(C)[Si](OC1CCOC1=O)(c1ccccc1)c1ccccc1 (stereo unspecified)
inactive: CCRF-CEM 25.6 µM | COLO 205 > 10 µM | SF-539 23.4 µM | SNB-19 29.6 µM | EKVX 31.3 µM | NCI-H23 19.4 µM | OVCAR-8 23.4 µM | UO-31 27.1 µM | SK-MEL-28 22.3 µM | A549 15.2 µM | HT-29 15.3 µM | A498 25.3 µM | SK-MEL-2 16.6 µM | TK-10 22.5 µM | RPMI-8226 29 µM

CC[C@@H]1C[C@@H]2CN3CCc4c([nH]c5ccc(OC)cc45)C(COC(=O)c4ccc(OC)c(OC)c4)(C2)C13
inactive: CCRF-CEM 14.3 µM | COLO 205 21.2 µM | SF-539 18.8 µM | SNB-19 37.6 µM | EKVX 53.5 µM | NCI-H23 10.3 µM | OVCAR-8 31.6 µM | UO-31 16.8 µM | SK-MEL-28 43.3 µM | OVCAR-4 26.4 µM | A549 33 µM | 786-0 25.2 µM | HT-29 7.82 µM | A498 21 µM | SK-MEL-2 > 10 µM | TK-10 32.2 µM | RPMI-8226 16.1 µM

COC(=O)C(=O)C(C(C)=O)C(=O)C(=O)Nc1ccc(C)cc1C (stereo unspecified)
inactive: CCRF-CEM > 100 µM | COLO 205 > 100 µM | SF-539 > 100 µM | SNB-19 > 100 µM | EKVX > 100 µM | NCI-H23 > 100 µM | OVCAR-8 > 100 µM | UO-31 > 100 µM | SK-MEL-28 > 100 µM | OVCAR-4 > 100 µM | A549 > 100 µM | HT-29 > 100 µM | A498 > 100 µM | SK-MEL-2 > 100 µM | TK-10 > 100 µM | RPMI-8226 > 100 µM

O=NN(CCCl)C(=O)N[C@H]1CC[C@H](C(=O)O)CC1
inactive: CCRF-CEM 36.3 µM | NCI/ADR-RES > 100 µM | COLO 205 > 100 µM | SF-539 36.1 µM | SNB-19 > 61.1 µM | EKVX > 100 µM | NCI-H23 > 100 µM | OVCAR-8 > 100 µM | UO-31 > 100 µM | SK-MEL-28 > 100 µM | OVCAR-4 > 100 µM | A549 > 100 µM | HT-29 > 100 µM | A498 > 100 µM | SK-MEL-2 > 100 µM | RPMI-8226 > 66.8 µM

COc1ccc(C2=NN(c3nsc4ccccc34)C(=O)CC2)cc1
inactive: CCRF-CEM 82.6 µM | COLO 205 > 100 µM | SF-539 > 100 µM | SNB-19 76 µM | EKVX 55.2 µM | NCI-H23 > 100 µM | OVCAR-8 > 100 µM | UO-31 59.2 µM | SK-MEL-28 > 100 µM | OVCAR-4 > 100 µM | A549 > 100 µM | HT-29 > 100 µM | SK-MEL-2 > 100 µM | TK-10 > 100 µM | RPMI-8226 30.5 µM

NC(=S)N/N=C1\CC(c2ccccc2)Nc2ccccc21 (stereo unspecified)
inactive: CCRF-CEM 29.6 µM | COLO 205 28.1 µM | SF-539 41.7 µM | SNB-19 40.8 µM | EKVX 55.7 µM | NCI-H23 30.2 µM | OVCAR-8 41.6 µM | UO-31 24.5 µM | SK-MEL-28 40.1 µM | HT-29 17.2 µM | A498 18.5 µM | TK-10 71.8 µM | RPMI-8226 27.1 µM

CON(C)C(=O)C(Cc1ccccc1)NC(=O)OCc1ccccc1 (stereo unspecified)
inactive: CCRF-CEM > 100 µM | COLO 205 > 100 µM | SF-539 > 100 µM | SNB-19 > 100 µM | EKVX > 100 µM | NCI-H23 > 100 µM | OVCAR-8 > 100 µM | UO-31 71.4 µM | SK-MEL-28 > 100 µM | OVCAR-4 > 100 µM | A549 > 100 µM | HT-29 > 100 µM | A498 > 100 µM | SK-MEL-2 > 100 µM | TK-10 > 100 µM | RPMI-8226 > 100 µM

NS(=O)(=O)c1cc2c(cc1Cl)NC(C(=O)NNC(=O)c1ccncc1)=NS2(=O)=O
inactive: CCRF-CEM > 100 µM | COLO 205 > 100 µM | SF-539 > 100 µM | SNB-19 > 100 µM | EKVX > 100 µM | NCI-H23 > 100 µM | OVCAR-8 > 100 µM | UO-31 > 100 µM | SK-MEL-28 > 100 µM | OVCAR-4 > 100 µM | A549 > 100 µM | 786-0 > 100 µM | HT-29 > 100 µM | SK-MEL-2 > 100 µM | TK-10 > 100 µM

CCOC(=O)N1C2C=C(C)C(ON2C(=O)c2ccccc2)C2C(C)C(=O)N21 (stereo unspecified)
inactive: CCRF-CEM > 100 µM | COLO 205 > 100 µM | SF-539 > 100 µM | SNB-19 > 100 µM | EKVX > 100 µM | NCI-H23 > 100 µM | OVCAR-8 > 100 µM | UO-31 > 100 µM | SK-MEL-28 > 100 µM | OVCAR-4 > 100 µM | A549 > 100 µM | 786-0 > 100 µM | HT-29 > 100 µM | A498 > 100 µM | SK-MEL-2 > 100 µM | TK-10 > 100 µM | RPMI-8226 > 100 µM

COC(=O)c1c[nH]cc1CCc1c[nH]cc1C(=O)OC
inactive: CCRF-CEM > 100 µM | COLO 205 > 100 µM | SF-539 > 100 µM | SNB-19 > 100 µM | EKVX > 100 µM | NCI-H23 > 100 µM | OVCAR-8 > 100 µM | SK-MEL-28 > 100 µM | OVCAR-4 > 100 µM | A549 > 100 µM | 786-0 > 100 µM | HT-29 > 100 µM | A498 48.2 µM | SK-MEL-2 > 100 µM | TK-10 > 100 µM

NC(=O)c1csc(C2O[C@@H](COP(=O)(O)OP(=O)(O)OC[C@H]3OC(n4cnc5c(N)ncnc54)[C@H](O)[C@@H]3O)[C@H](O)[C@@H]2O)n1 (stereo partly specified)
inactive: CCRF-CEM > 100 µM | COLO 205 > 100 µM | SF-539 52 µM | SNB-19 > 100 µM | EKVX > 100 µM | NCI-H23 > 100 µM | OVCAR-8 73.8 µM | UO-31 > 100 µM | SK-MEL-28 30 µM | OVCAR-4 73.3 µM | A549 > 100 µM | 786-0 57.1 µM | HT-29 87.5 µM | A498 > 100 µM | SK-MEL-2 > 100 µM | TK-10 > 100 µM | RPMI-8226 65.2 µM

C=C1CC(OC)(C(O)C(=O)N[C@H]2OCO[C@H]3C2O[C@H](C[C@@H](COC)OC)C(C)(C)C3OC)O[C@H](C)[C@@H]1C (stereo partly specified)
active: CCRF-CEM < 0.00482 µM | NCI/ADR-RES < 0.00482 µM | COLO 205 < 0.00482 µM | SF-539 < 0.00482 µM | SNB-19 < 0.00482 µM | EKVX < 0.00482 µM | NCI-H23 < 0.00482 µM | OVCAR-8 < 0.00482 µM | UO-31 < 0.00482 µM | SK-MEL-28 < 0.00482 µM | OVCAR-4 < 0.00482 µM | A549 < 0.00482 µM | HT-29 < 0.00482 µM | A498 < 0.00482 µM | RPMI-8226 < 0.00482 µM

COc1ccc(C2CC(c3sc(Nc4ccc(C)cc4)nc3C)=NN2)cc1 (stereo unspecified)
inactive: CCRF-CEM 11.1 µM | NCI/ADR-RES 17.4 µM | COLO 205 13.7 µM | SF-539 15.4 µM | SNB-19 15.7 µM | EKVX 20.5 µM | NCI-H23 15.5 µM | OVCAR-8 15.5 µM | UO-31 14.2 µM | SK-MEL-28 16.8 µM | OVCAR-4 13.3 µM | A549 15.6 µM | HT-29 11.8 µM | A498 15.4 µM | SK-MEL-2 15.8 µM | RPMI-8226 12.4 µM

COc1cccc(CC(C)N)c1 (stereo unspecified)
inactive: CCRF-CEM > 100 µM | COLO 205 > 100 µM | SF-539 > 100 µM | SNB-19 > 100 µM | EKVX > 100 µM | NCI-H23 > 100 µM | OVCAR-8 > 100 µM | UO-31 > 100 µM | SK-MEL-28 > 100 µM | OVCAR-4 > 100 µM | A549 > 100 µM | 786-0 > 100 µM | HT-29 > 100 µM | A498 > 100 µM | SK-MEL-2 > 100 µM | TK-10 > 100 µM | RPMI-8226 > 100 µM

Reference: ChEMBL document CHEMBL1201862, “PubChem BioAssay data set” (2004)
